# Reference: PubChem BioAssay (NCI)
# Several values for one entry are separate records, joined by “and”; a condition that tells them apart may be missing. Equal entries are not always repeated.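 Cells were grown in 96-well plates and exposed to each compound for 48 hours at five concentrations; endpoints were interpolated linearly between bracketing concentrations, or set to the highest concentration if not reached. GI50 marks 50% less growth. TGI is the concentration that stops growth completely.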
# Assays:
# Assay in all cases: growth of human tumour cells (NCI), 48 h
# OVCAR-8 ovarian = test system: OVCAR-8 ovarian
# RXF 393 renal = test system: RXF 393 renal
# SK-OV-3 ovarian = test system: SK-OV-3 ovarian
# SK-MEL-2 melanoma = test system: SK-MEL-2 melanoma
# OVCAR-5 ovarian = test system: OVCAR-5 ovarian
# HOP-92 NSCLC = test system: HOP-92 NSCLC
# BT-549 breast = test system: BT-549 breast
# NCI-H460 lung = test system: NCI-H460 lung
# HCC-2998 colon = test system: HCC-2998 colon
# UO-31 renal = test system: UO-31 renal
# UACC-62 melanoma = test system: UACC-62 melanoma
# HOP-62 NSCLC = test system: HOP-62 NSCLC
# COLO 205 colon = test system: COLO 205 colon
# SF-539 CNS = test system: SF-539 CNS
Compound,TGI (OVCAR-8 ovarian) [µM],TGI (RXF 393 renal) [µM],TGI (SK-OV-3 ovarian) [µM],TGI (SK-MEL-2 melanoma) [µM],TGI (OVCAR-5 ovarian) [µM],TGI (HOP-92 NSCLC) [µM],TGI (BT-549 breast) [µM],TGI (NCI-H460 lung) [µM],TGI (HCC-2998 colon),TGI (UO-31 renal) [µM],TGI (UACC-62 melanoma) [µM],TGI (HOP-62 NSCLC) [µM],TGI (COLO 205 colon) [µM],TGI (SF-539 CNS) [µM],GI50 (HCC-2998 colon)
CC(C)(C)OC(=O)N1CCC[C@H]1CSC[C@@H]1CCCN1C(=O)OC(C)(C)C,> 100,69,> 100,40.6,> 100,39.5,58.9,> 100,> 100 µM,74.9,57.2,> 100,30.5,–,–
CC(=O)Nc1ccc2c(c1)C(=Nc1ccc(C(=O)O)cc1)c1ccccc1-2,> 100,> 100,> 100,–,> 100,> 100,> 100,> 100,> 100 µM,> 100,> 100,> 100,> 100,–,–
NC(=S)NS(=O)(=O)c1ccc(F)cc1,> 100,> 100,> 100,> 100,> 100,> 100,> 100,> 100,> 100 µM,–,> 100,> 100,> 100,> 100,–
CSc1nc2ccccc2c(=O)n1-c1cccc(C)c1,> 100,> 100,> 100,> 100,> 100,> 100,> 100,> 100,35.1 µM,–,> 100,> 100,> 100,> 100,–
O=C1c2cc([N+](=O)[O-])cnc2S(=O)(=O)N1c1ccc(Oc2ccccc2)cc1,> 100,> 100,> 100,> 100,> 100,> 100,> 100,> 100,> 100 µM,> 100,> 100,> 100,> 100,–,–
COc1ccc(N=C/C=C/C(=C/COC(C)=O)OC(C)=O)cc1,> 100,57.4,> 100,48.1,> 100,57.4,> 100,98.6,> 100 µM,–,> 100,> 100,73.5,> 100,–
N#CCCN(CCC#N)c1ccc(/C=C2\N=C(c3ccccc3)N(NC(=O)c3ccncc3)C2=O)cc1,> 100,> 100,> 100,> 100,> 100,> 100,> 100,> 100,–,> 100,> 100,> 100,> 100,> 100,–
CN(N=O)C(N)=NC(=O)c1ccccc1,> 100,> 100,> 100,> 100,> 100,> 100,> 100,40.6,–,> 100,> 100,> 100,> 100,> 100,–
N/C(=N/O)c1cn(C2OC(CO)C(O)C2O)c2ncnc(NO)c12 (configuration not stated),> 100,14.7,–,0.176,> 57.7,> 45.4,> 100,7.59,7.12 µM,–,1.66,> 100,0.623,5.03,–
Cc1cc2c(cc1-c1cc3c(cc1C)C(C(C)C)=C(O)C(=O)/C3=C\Nc1cccc3c(N)cccc13)/C(=C/Nc1cccc3c(N)cccc13)C(=O)C(O)=C2C(C)C,> 100,> 100,> 100,> 100,> 100,> 100,> 100,> 100,> 100 µM,> 100,> 100,> 100,> 100,–,–
Brc1ccc(C2(N3CCCCC3)CCCCC2)s1,–,33.3,> 100,37,> 100,51.2,> 100,84.8,35.3 µM,> 100,> 100,> 100,–,–,–
COc1cc(-c2c(C(C)=O)c(-c3ccccc3)n(C3OC(COC(C)=O)C(OC(C)=O)C(OC(C)=O)C3OC(C)=O)c(=S)c2C#N)ccc1O (configuration not stated),–,> 100,–,–,> 100,> 100,82.4,> 100,> 100 µM and 79.5 µM,> 100,> 100,> 100,> 100,–,> 100 µM and 29.6 µM
O=C(CN1c2ccccc2Sc2ccccc21)n1cnc2ccccc21,> 100,> 100,> 100,> 100,> 100,93.9,> 100,> 100,–,> 100,> 100,> 100,> 100,> 100,–
Cc1oc2nc(N(C)C)n3c(C)nnc3c2c1C,> 100,> 100,> 100,–,> 100,> 100,> 100,–,> 100 µM,> 100,> 100,–,> 100,> 100,–
O=C1C(c2c(O)n(-c3ccccc3)c3ccccc23)=Nc2ccccc21,> 100,41.6,> 100,97.3,> 100,84.9,> 100,> 100,75.5 µM,> 100,> 100,> 100,66.3,–,–
